# Assays:
# eosinophils = test: Eosinophil activation: RH 123 signal in CD193(+)/CD16(-) gated cells; type: cell-based, human
# Description: Activation of eosinophils from human blood samples following exposure to exogenous stimulants was investigated using flow cytometry analysis of RH 123 fluorescence, as well as cell surface markers CD16 and CD193, and side scattering profiles. CD193 (CCR3; Chemokine C—C motif receptor 3) is a surface marker expressed in eosinophils and basophils. FIGS. 23A-23C show density plots of CD193 fluorescence signal on channel 3 (FL3-A) for DHR 123 only (FIG. 23A), DHR 123+PMA stimulant (FIG. 23B), and DHR 123+DM stimulant (FIG. 23C) following exposure to stimulant for 1.5 hours. FIGS. 23D-23F show corresponding gated RH 123 results (MFI=32944, MFI=70320, and MFI=28522, respectively). FIGS. 24A-24C show density plots of CD193 fluorescent signals at channel 3 (FL3-A) for DHR 123 only (FIG. 24A), DHR 123+DM stimulant (FIG. 24B), and DHR 123+RWP stimulant (FIG. 24C) following exposure to stimulant for 2.5 hours. FIGS. 24D-24F show corresponding gated RH 123 results (FIG. 24D, DHR 123 only: MFI=10156; FIG. 24E, DHR 123+DM stimulant: MFI=19911, and […], DHR 123+RWP stimulant: MFI=17210).
# Eosinophil population was selected using CD193(+) and CD16(−) expression profiles (shown in FIGS. 23A-23C and […] as encircled). Eosinophil population was reduced in PMA stimulant, DM stimulant and RWP stimulant exposed groups. In addition, DHR 123 signals in gated eosinophils was higher than DHR 123 only control group after 2.5-hour incubation. Thus, it was concluded that eosinophils are activated by dust mite and ragweed pollen stimulants according to this method.
# white blood cells = test: DHR 123 flow cytometry blood test: RH 123 fluorescence (ROS generation), channel 1 FL1-A; type: cell-based, human
# Protocol: See FIG. 1 and FIG. 2 for exemplary flow diagrams of the method. Whole peripheral blood samples were obtained from subjects and collected in lithium heparin tubes. Samples were diluted 1:100 in electrolyte solution supplemented with 10% heat-inactivated fetal-bovine serum (FBS). Samples were incubated with 5 μg of dihydrorhodamine 123 (DHR 123) at 37° C. under 5% CO2 for 15 min. Cells were treated with 1 μM Phorbol-12-Myristate-13-Acetate (PMA), an exogenous stimulant, or an equal volume of PBS (negative control), and incubated for 30 min to 1 hr.
# RBCs of the sample were lysed, fixed, and removed prior to flow cytometry analysis. Briefly, cells were lysed and partially fixed using 3% (v/v) lysis buffer and 1% (v/v) formaldehyde in phosphate-buffered saline (PBS). Samples were incubated for 2 min or until turbidity of the solution was resolved indicating essentially complete lysis of RBCs, and the sample centrifuged at 300×g for 5 min at room temperature (RT). RBC-containing supernatant was discarded, and remaining leukocytes were fixed using 3.7% (v/v) formaldehyde and centrifuged at 300×g at RT for 5 min. Samples were washed twice in FBS and centrifuged at 300×g at RT for 5 min. After washing, the cells were blocked with FC block (Invitrogen, USA) and 2% FBS for 30 min on ice and then incubated with staining buffer containing manufacturer-specified dilutions of fluorophore-conjugated antibodies specific for granulocytes (e.g., neutrophils, basophils, and/or eosinophils) or granulocyte activation (e.g., degranulation). Cells were washed twice and resuspended in PBS prior to analysis using a BD Accuri C6 Flow Cytometer (BD Biosciences, USA). Statistical analysis was performed using the FlowJo v10 (FlowJo, Oregon, USA).
# A sample of whole blood was treated with DHIR 123 or mock at 37° C. for 15 min, then treated with phorbol 12-myristate 13-acetate (PMA) and incubated for 25 min. Red and white blood cells were lysed and fixed as described above. Flow cytometry results are shown in FIGS. 3A-3D for negative control (FIG. 3A), DHR 123 only treated control (FIG. 3B), DHR 123+PMA treated (FIG. 3C), as well as an overlap plot of each (FIG. 3D).
# Provided below is an exemplary protocol for DHR 123 treatment and cell surface marker staining for DHR 123 flow cytometry blood test. • 1. Obtain a blood sample from a subject; e.g., • 1 mL blood sample for each person was obtained. • 2. Treat with DHR 123 and/or stimulant (e.g., PMA); e.g., • 100 μL whole blood was used for each group: 1) cell only control; 2) DHR 123 loaded cells; 3) DHR 123 loaded cells stimulated with stimulant (e.g., PMA). […] Fix and lyse the cells; e.g., • After stimulant treatment, the cells were fixed and red blood cells were concurrently lysed by adding lysis/fixation solution (e.g., 850 μL (800 μl PBS, 25 μL lyse solution, […])) and incubating 5 min at room temperature. • 4. Prepare cells for staining; e.g., • Cells were centrifuged and the supernatant discarded; • Formaldehyde solution (e.g., 500 μL, 3.7% formaldehyde) was added and incubated for 5 more minutes for fixation; • Cells were centrifuged and the supernatant discarded; • Cells were washed with 350 μL PBS twice, and then centrifuged before discarding the supernatant; • Cells were centrifuged and the supernatant discarded; • 5. Stain the cells; e.g., • 80 μL staining buffer (PBS+0.1% albumin+0.01% tween 20) was added, along with 5 μL of antibody solution for CD16, CD123 and CD193 and the sample incubated for 30 min at room temperature; • 6. Prepare cells for flow cytometry; e.g., • Cells were washed with PBS, centrifuged and the supernatant discarded; • Cells were resuspended in 125 μL PBS for subsequent flow cytometer analysis.
# Flow cytometry analysis of human blood samples was performed following exposure to exogenous dust mite (“DM”) stimulant using time course measurements of RH 123 and PI fluorescence. […]
# [1] = after 40-minute stimulation of PMA
smiles,measurement,setting,value
"CCCCCCCCCCCCCC(=O)O[C@@H]1[C@@H](C)[C@@]2(O)[C@@H](C=C(CO)C[C@]3(O)C(=O)C(C)=C[C@@H]23)[C@@H]2C(C)(C)[C@]12OC(C)=O [PMA, Phorbol-12-Myristate-13-Acetate]",CD193 signal over incubation time,"eosinophils; 1-3 hr incubation, DHR 123 and PMA",decreased
same,"gated RH 123 signal MFI, CD193 gated","eosinophils; 1.5 hours exposure, DHR 123 only control MFI=32944",70320
same,eosinophil population (in words),eosinophils; CD193(+) and CD16(−) population in stimulant exposed groups,reduced
same,activation of granulocyte populations (summary of Example 2),white blood cells,induced the activation of all granulocyte populations
same,stimulation of lymphocytes (in words),white blood cells; CD33(−) lymphocyte population (M1),not stimulated
same,Mean FL1-A (0.5 h),"white blood cells; R123, 0.5 h, PMA, RWP1 2.5 μL, MLK, CUC, BAS 5 μL per 100 μL blood (Table 5)","58,792.96"
same,Mean FL1-A (1.5 h),"white blood cells; R123, 1.5 h, PMA, RWP1 2.5 μL, MLK, CUC, BAS 5 μL per 100 μL blood (Table 5)","168,741.44"
same,Mean FL1-A (2.5 h),"white blood cells; R123, 2.5 h, PI stained, PMA, RWP1 2.5 μL, MLK, CUC, BAS 5 μL per 100 μL blood (Table 5)","361,510.02"
same,MFI (0.5 h) FL1-A,"white blood cells; RH 123, 0.5 h incubation, PMA or DM 2 μL/100 μL blood","5,076.27"
same,MFI (1.5 h) FL1-A,"white blood cells; RH 123, 1.5 h incubation, PMA or DM 2 μL/100 μL blood","14,093.83"
same,MFI (2.5 h) FL1-A,"white blood cells; RH 123, 2.5 h, increased stimulant, 8 μL DM or RWP per 100 μL blood (Table 7)","10,553.44"
same,MFI (2.5 h) FL1-A,"white blood cells; RH 123, 2.5 h incubation, PI stained, PMA or DM 2 μL/100 μL blood","9,353.98"
same,RH 123 average intensity of peak,white blood cells; [1],about 10^6 unit
same,RH 123 average intensity relative to negative control (DHR 123 only),white blood cells; [1],~500 times
same,RH 123 fluorescence / ROS generation (in words),white blood cells; vs cells loaded with DHR 123 only,strong green fluorescence

# — US20250327794A1, “FLUOROMETRIC METHODS FOR DETECTION OF ALLERGIC SENSITIVITY TO ENVIRONMENTAL, FOODSTUFF, AND MEDICAMENT STIMULANTS” (CELL SCIENCE SYSTEMS CORPORATION, priority 2022, published 2025)
